# Measured values published in US20170211147A1, “METHOD OF PREDICTING REACTION TO SORAFENIB TREATMENT USING GENE POLYMORPHISM” (National Cancer Center, priority 2014, published 2017).
# Experiments:
# [1] = tested on: liver cancer patients; assay: Progression-free survival with sorafenib treatment by SLC15A2 genotype (Kaplan-Meier, Cox proportional hazard model); type: in vivo, human
# Text: Five coding variants were identified in the SLC15A2 gene by NGS analysis, and three non-synonymous SNVs (L350F, P409S and R509K), which may cause a functional alternation in gene product, were selected so as to analyze genotypes for 233 liver cancer patients that had received sorafenib treatment over 6 weeks.
# Also, to confirm SNPs to be analyzed, 249 patients treated with sorafenib were genotyped using the MassARRAY system (Sequenom, San Diego, Calif., USA), thereby obtaining three SNP genotypes (C/C, C/T and T/T).
# Specifically, the association between generic polymorphisms and risk for progression was assessed by a Cox proportional hazard model with adjustment by stage of hepatocellular carcinoma (HCC). Also, analyses of data obtained were performed using STATA version 10.1 (Stata Corp, College Station, Tex., USA).
# [2] = tested on: Hep3B cell line; assay: MTT assay, cell viability after sorafenib treatment; type: cell-based, human; details: C/C genotype, sorafenib for 48 hours
# Protocol: (§1) First, human hepatocellular carcinoma (HCC)-derived cell lines such as Hep3B, SNU182 and PLC/PRFS cell lines were purchased from Korean Cell Line Bank (KCLB, Seoul, Republic of Korea), and genomic DNA was extracted from the cell lines derived from human HCC using a MagAttract DNA mini M48 kit (Qiagen) according to a user manual of the kit.
# (§2) Afterward, to confirm the sorafenib response in each cell line according to the SLC15A2 gene nucleotide polymorphism, each cell line was cultured in RPMI-1640 (Invitrogen, Carlsbad, Calif., USA) with 10%(v/v) fetal bovine serum (FBS) and 100 U/ml penicillin-streptomycin at 37° C. in 5% CO2. Next, for the MTT assay, cells obtained by the above-described culture were plated on 96-well plates at a density of 1×10^4 cells/well and treated with sorafenib for 48 hours in the RPMI-1640 used above.
# (§3) Then, the number of viable cells was measured by performing the MTT assay (Promega Fitchburg, Wis., USA) according to a user manual of the MTT assay.
# [3] = tested on: PLC/PRFS cell line; assay: as above; type: cell-based, human; details: C/T genotype
# Protocol: as §1, §2, §3
# [4] = tested on: SNU182 cell line; assay: as above; type: cell-based, human; details: SNU182, T/T genotype
# Protocol: as §1, §2, §3
smiles,measurement,setting,value
CNC(=O)c1cc(Oc2ccc(NC(=O)Nc3ccc(Cl)c(C(F)(F)F)c3)cc2)ccn1 [sorafenib],progression-free survival (accumulative hazard ratio),[1],2.46
same,response to sorafenib treatment,[1]; subjects with C/T or T/T genotype compared with C/C genotype,stronger response
same,proliferation,[2],dose-dependently inhibited
same,response to sorafenib compared with Hep3B cell line (C/C genotype),[3]; 48 hours,stronger response
same,proliferation,[3]; sorafenib for 48 hours,dose-dependently inhibited
same,response to sorafenib compared with Hep3B cell line (C/C genotype),[4]; 48 hours,stronger response
same,proliferation,[4]; sorafenib for 48 hours,dose-dependently inhibited
